Measured values reported in publication PMC8898184 (Drug Design, Development and Therapy, 2022).

Biological target: T1, Bovine β-lactoglobulin (BLG) (Bos taurus, UniProt P02754)
T1 sequence (P02754 17-178): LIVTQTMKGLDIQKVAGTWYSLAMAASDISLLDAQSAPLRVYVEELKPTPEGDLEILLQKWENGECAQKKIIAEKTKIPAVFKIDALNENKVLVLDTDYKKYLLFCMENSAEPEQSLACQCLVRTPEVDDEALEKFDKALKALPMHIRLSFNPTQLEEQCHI
Test: tryptophan fluorescence quenching
Type: binding
Conditions: PBS, pH 7.4, 37 °C; 5 μM BLG; double-log

Kb (×10^3 M^-1): 2.051 × 10^3 M^-1
Structure (SMILES): CC(=O)Oc1ccccc1C(=O)O [aspirin]
